Target: vaccinia-related kinase 1 (VRK1) (Homo sapiens, UniProt Q99986)
Assay: biochemical
Assay type: binding

Sequence of vaccinia-related kinase 1 (VRK1) (Q99986 whole entry): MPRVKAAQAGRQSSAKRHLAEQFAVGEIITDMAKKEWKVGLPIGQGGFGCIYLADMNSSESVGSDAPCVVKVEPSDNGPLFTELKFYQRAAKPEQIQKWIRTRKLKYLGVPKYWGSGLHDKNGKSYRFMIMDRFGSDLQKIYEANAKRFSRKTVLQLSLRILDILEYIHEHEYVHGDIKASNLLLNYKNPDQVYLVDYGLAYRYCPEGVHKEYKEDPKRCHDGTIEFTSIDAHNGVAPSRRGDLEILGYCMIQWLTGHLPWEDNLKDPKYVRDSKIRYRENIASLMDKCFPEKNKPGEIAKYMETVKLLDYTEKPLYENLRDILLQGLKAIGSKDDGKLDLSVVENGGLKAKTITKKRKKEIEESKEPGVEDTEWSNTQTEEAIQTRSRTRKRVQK

`C[C@H]1[C@H](C)CC[C@]2(C(=O)O)CC[C@]3(C)C(=CC[C@@H]4[C@@]5(C)CC[C@H](O)C(C)(C)[C@@H]5CC[C@]43C)[C@H]12` [UA, (1S,2R,4aS,6aR,6aS,6bR,8aR,10S,12aR,14bS)-10-hydroxy-1,2,6a,6b,9,9,12a-heptamethyl-2,3,4,5,6,6a,7,8,8a,10,11,12,13,14b-tetradecahydro-1H-picene-4a-carboxylic acid] was tested, and the Kd was 731 nM.

— PMC4585938, “Ursolic acid exerts anti-cancer activity by suppressing vaccinia-related kinase 1-mediated damage repair in lung cancer cells” (Scientific Reports, 2015)
